“Also recorded” adds a separate entry of the source.
How the values were obtained:
Arabidopsis thaliana [1] = assay: MOA1 gene expression profiling (arrays of 22,000 Arabidopsis genes); conditions: for Gene expression perturbation (in words): MOA1, one-hour time point; for No. of Lethal Genes Altered: altered genes identified as essential for plant growth in internal database
[2] = tested on: Arabidopsis thaliana plants; assay: SOA1 phenotypic analysis of herbicide-treated plants (MIC, Tmic, leaf traits, symptom class); type: in vivo; conditions: for Characteristic symptoms of treated plants (in words): SOA1 phenotypic analysis; for leafCurling (Dev.) / leafTwisting (Dev.) / leafWidth (Dev.) / matureLeafAnthocyanins (Dev.) / matureLeafChlorosis (Dev.) / matureLeafNecrosis (Dev.) / newLeafAnthocyanins (Dev.) / newLeafChlorosis (Dev.) / newLeafNecrosis (Dev.) / pointedLeaves (Dev.): numeric value standardized to mock treated plants; for leafCurling (Dev.) / leafTwisting (Dev.) / leafWidth (Dev.) / matureLeafAnthocyanins (Dev.) / matureLeafChlorosis (Dev.) / matureLeafNecrosis (Dev.) / newLeafAnthocyanins (Dev.) / newLeafChlorosis (Dev.) / newLeafNecrosis (Dev.) / pointedLeaves (Dev.) / tMic (Dev.): SOA1; for tMic (Dev.): score for time to full range of symptoms at the MIC
[3] = tested on: Saccharomyces cerevisiae wild type strain BY4743; assay: AF1 yeast metabolite analysis by GC-MS and LC-MS after antifungal drug treatment; type: cell-based; conditions: for Fold Change, phosphoenolpyruvate: metabolite phosphoenolpyruvate; for Fold Change, thymine: metabolite thymine; for Fold Change, urocanic acid: metabolite urocanic acid; for Fold Change, zeatin: metabolite zeatin
Arabidopsis thaliana [4] = assay: MOA1 biochemical (metabolite) profiling by LC-MS and GC-MS; conditions: 20 minutes and 1 hour after spraying
Magnaporthe grisea = type: cell-based
[5] = 1 hr, p < 0.5, number of genes of 22,000

COC(=O)NS(=O)(=O)c1ccc(N)cc1 [Asulam]
Gene expression perturbation (in words) (Arabidopsis thaliana [1]): fewest gene expression perturbations | No. of Lethal Genes Altered (Arabidopsis thaliana [1]; 1 hr): 5

C[n+]1ccc(-c2cc[n+](C)cc2)cc1 [Paraquat]
Characteristic symptoms of treated plants (in words) [2]: rapid and widespread leaf necrosis | leafCurling (Dev.) [2]: 2 | leafTwisting (Dev.) [2]: 0 | leafWidth (Dev.) [2]: −1 | matureLeafAnthocyanins (Dev.) [2]: 0 | matureLeafChlorosis (Dev.) [2]: 1 | matureLeafNecrosis (Dev.) [2]: 4 | newLeafAnthocyanins (Dev.) [2]: 0 | newLeafChlorosis (Dev.) [2]: 1 | newLeafNecrosis (Dev.) [2]: 4 | pointedLeaves (Dev.) [2]: 1 | tMic (Dev.) [2]: 2

CN(C)C(=O)Nc1ccc(Cl)c(Cl)c1 [Diuron]
Characteristic symptoms of treated plants (in words) [2]: rapid and widespread leaf necrosis | leafCurling (Dev.) [2]: 1 | leafTwisting (Dev.) [2]: 0 | leafWidth (Dev.) [2]: −2 | matureLeafAnthocyanins (Dev.) [2]: 0 | matureLeafChlorosis (Dev.) [2]: 2 | matureLeafNecrosis (Dev.) [2]: 4 | newLeafAnthocyanins (Dev.) [2]: newLeafAnthocyanins 0 | newLeafChlorosis (Dev.) [2]: 2 | newLeafNecrosis (Dev.) [2]: 4 | pointedLeaves (Dev.) [2]: 1 | tMic (Dev.) [2]: 1

c1cc[n+]2c(c1)-c1cccc[n+]1CC2 [Diquat]
Characteristic symptoms of treated plants (in words) [2]: rapid and widespread leaf necrosis | leafCurling (Dev.) [2]: 2 | leafTwisting (Dev.) [2]: 0 | leafWidth (Dev.) [2]: −2 | matureLeafAnthocyanins (Dev.) [2]: 0 | matureLeafChlorosis (Dev.) [2]: 1 | matureLeafNecrosis (Dev.) [2]: 4 | newLeafAnthocyanins (Dev.) [2]: 0 | newLeafChlorosis (Dev.) [2]: 1 | newLeafNecrosis (Dev.) [2]: 4 | pointedLeaves (Dev.) [2]: 1 | tMic (Dev.) [2]: 2

CC[C@@H]([C@H](C)O)n1ncn(-c2ccc(N3CCN(c4ccc(OC[C@@H]5CO[C@@](Cn6cncn6)(c6ccc(F)cc6F)C5)cc4)CC3)cc2)c1=O [Posaconazote]
Fold Change, porphobilinogen ([3]; metabolite porphobilinogen, platform nLC, p-Value 1): 0

CC[C@@H]([C@H](C)O)n1ncn(-c2ccc(N3CCN(c4ccc(OC[C@@H]5CO[C@@](Cn6cncn6)(c6ccc(F)cc6F)C5)cc4)CC3)cc2)c1=O [Posaconazole]
Fold Change, NacetylDglucosamine ([3]; metabolite NacetylDglucosamine, platform nLC, p-Value 1): 0 | Fold Change, NacetylLglucosamine ([3]; metabolite NacetylLglucosamine, platform pLC, p-Value 1): 0 | Fold Change, NacetylLglutamate ([3]; metabolite NacetylLglutamate, platform pLC, p-Value 1): 0 | Fold Change, NacetylLornithine ([3]; metabolite NacetylLornithine, platform nLC, p-Value 1): 0 | Fold Change, niacinamide ([3]; metabolite niacinamide, platform pLC, p-Value 1): 0 | Fold Change, nopaline ([3]; metabolite nopaline, platform pLC, p-Value 1): 0 | Fold Change, ornithine3 ([3]; metabolite ornithine3, platform GC, p-Value 0.965157424): 0.041 | Fold Change, orotic acid ([3]; metabolite orotic acid, platform nLC, p-Value 1): 0 | Fold Change, phenylpyruvic acid ([3]; metabolite phenylpyruvic acid, platform nLC, p-Value 1): 0 | Fold Change, phosphoenolpyruvate ([3]; platform LC, p-Value 1): 0 | Fold Change, phosphoenolpyruvate ([3]; platform nLC, p-Value 1): 0 | Fold Change, pinitol ([3]; metabolite pinitol, platform nLC, p-Value 1): 0 | Fold Change, progesterone ([3]; metabolite progesterone, platform pLC, p-Value 1): 0 | Fold Change, retinoic acid ([3]; metabolite retinoic acid, platform nLC, p-Value 1): 0 | Fold Change, riboflavin ([3]; metabolite riboflavin, platform pLC, p-Value 1): 0 | Fold Change, salicylic/HObenzoic ([3]; metabolite salicylic/HObenzoic, platform nLC, p-Value 1): 0 | Fold Change, shikimic acid ([3]; metabolite shikimic acid, platform nLC, p-Value 1): 0 | Fold Change, sinapinic acid ([3]; metabolite sinapinic acid, platform nLC, p-Value 1): 0 | Fold Change, sugar-phosphate ([3]; metabolite sugar-phosphate, platform pLC, p-Value 1): 0 | Fold Change, thiamine ([3]; metabolite thiamine, platform pLC, p-Value 1): 0 | Fold Change, thymine ([3]; platform nLC, p-Value 1): 0 | Fold Change, thymine ([3]; platform pLC, p-Value 1): 0 | Fold Change, tryptophan ([3]; metabolite tryptophan, platform pLC, p-Value 1): 0 | Fold Change, uric acid ([3]; metabolite uric acid, platform pLC, p-Value 1): 0 | Fold Change, urocanic acid ([3]; platform nLC, p-Value 1): 0 | Fold Change, urocanic acid ([3]; platform pLC, p-Value 1): 0 | Fold Change, xanthosine(diH2O) ([3]; metabolite xanthosine(diH2O), platform pLC, p-Value 1): 0 | Fold Change, xanthosineDiH2O ([3]; metabolite xanthosineDiH2O, platform nLC, p-Value 1): 0 | Fold Change, zeatin ([3]; platform nLC, p-Value 1): 0 | Fold Change, zeatin ([3]; platform pLC, p-Value 1): 0

COC(=O)c1cc(Oc2ccc(Cl)cc2Cl)ccc1[N+](=O)[O-] [Bifenox]
Characteristic symptoms of treated plants (in words) [2]: Necrotic leaf flecks

CNc1cnn(-c2cccc(C(F)(F)F)c2)c(=O)c1Cl [Norfluazon, Norflurazon]
Regulated metabolites relative to control (in words) (Arabidopsis thaliana [4]): Only a few, if any, stress-related metabolites were observed

O=C(O)COc1ccc(Cl)cc1Cl [2,4-D]
leafCurling (Dev.) [2]: 1 | leafTwisting (Dev.) [2]: 2 | leafWidth (Dev.) [2]: −1 | matureLeafAnthocyanins (Dev.) [2]: 1 | matureLeafChlorosis (Dev.) [2]: 2 | matureLeafNecrosis (Dev.) [2]: 0 | newLeafAnthocyanins (Dev.) [2]: 0 | newLeafChlorosis (Dev.) [2]: 1 | newLeafNecrosis (Dev.) [2]: 0 | pointedLeaves (Dev.) [2]: 0 | tMic (Dev.) [2]: 2 | Symptom Class ([2]; three-week-old Arabidopsis plants treated with herbicide): 5

O=C(O)c1cc(Oc2ccc(C(F)(F)F)cc2Cl)ccc1[N+](=O)[O-] [Acifluorfen]
Characteristic symptoms of treated plants (in words) [2]: Necrotic leaf flecks

CC(C)N1C(=O)c2ccccc2NS1(=O)=O [Bentazon]
Characteristic symptoms of treated plants (in words) [2]: rapid and widespread leaf necrosis

CC(C)C1(C)N=C(c2ncccc2C(=O)O)NC1=O (stereo not shown) [Imazapyr]
Characteristic symptoms of treated plants (in words) [2]: anthocyanin accumulation in the older leaves accompanied by chlorosis of the newly emerging leaves | Regulated metabolites relative to control (in words) (Arabidopsis thaliana [4]): Only a few, if any, stress-related metabolites were observed

CC(=O)N1CCN(c2ccc(OCC3COC(Cn4ccnc4)(c4ccc(Cl)cc4Cl)O3)cc2)CC1 (stereo not shown) [Ketoconazole]
# Compounds perturbed by treatment ([3]; P < 0.1, 2X MIC, two hours): 15

OC(Cn1cncn1)(Cn1cncn1)c1ccc(F)cc1F [Fluconazole]
Fold Change, abscisic acid ([3]; platform LC): 0 | Fold Change, adenosine ([3]; platform LC): 0

CCNc1nc(Cl)nc(NC(C)C)n1 [Atrazine]
Characteristic symptoms of treated plants (in words) [2]: rapid and widespread leaf necrosis

CCc1cnc(C2=NC(C)(C(C)C)C(=O)N2)c(C(=O)O)c1 (stereo not shown) [Imazethapyr]
Characteristic symptoms of treated plants (in words) [2]: anthocyanin accumulation in the older leaves accompanied by chlorosis of the newly emerging leaves

O=C(O)CNCP(=O)(O)O [Glyphosate]
Characteristic symptoms of treated plants (in words) [2]: anthocyanin accumulation in the older leaves accompanied by chlorosis of the newly emerging leaves | leafCurling (Dev.) [2]: 0 | leafTwisting (Dev.) [2]: 0 | leafWidth (Dev.) [2]: 0 | matureLeafAnthocyanins (Dev.) [2]: 3 | matureLeafChlorosis (Dev.) [2]: 1 | matureLeafNecrosis (Dev.) [2]: 3 | newLeafAnthocyanins (Dev.) [2]: 1 | newLeafChlorosis (Dev.) [2]: 2 | newLeafNecrosis (Dev.) [2]: 0 | pointedLeaves (Dev.) [2]: 1 | tMic (Dev.) [2]: 2 | Growth of M. grisea on various nitrogen sources, Tier 4 (Magnaporthe grisea): inhibited growth of M. grisea when nitrate, nitrite, or glutamate was provided as the sole nitrogen source; also recorded: Little growth defect was observed when ammonium or glutamine was provided | Growth results for Tiers 3 and 4 (Magnaporthe grisea; 250 μg/ml): nearly identical as compared to Unknown 4 | Growth inhibition of M. grisea and its remediation (Magnaporthe grisea; 1.0 mg/ml): remediated by inclusion of aromatic amino acids to the media | Regulated metabolites relative to control (in words) (Arabidopsis thaliana [4]): (tyrosine), decreased relative to the control after one hour

COc1nc(C)nc(NC(=O)NS(=O)(=O)c2ccccc2Cl)n1 [Chlorsulfuron]
No. of Lethal Genes Altered (Arabidopsis thaliana [1]; 1 hr): 8 | Characteristic symptoms of treated plants (in words) [2]: anthocyanin accumulation in the older leaves accompanied by chlorosis of the newly emerging leaves

O=C(O)c1ccccc1C(=O)Nc1cccc2ccccc12 [Naptalam]
Regulated Genes Following Herbicide Treatment: Down (Arabidopsis thaliana [1]; [5]): 47 | Regulated Genes Following Herbicide Treatment: Up (Arabidopsis thaliana [1]; [5]): 50 | Gene expression perturbation (in words) (Arabidopsis thaliana [1]): fewest gene expression perturbations | No. of Lethal Genes Altered (Arabidopsis thaliana [1]; 1 hr): 3

CSc1nnc(C(C)(C)C)c(=O)n1N [Metribuzin]
Characteristic symptoms of treated plants (in words) [2]: rapid and widespread leaf necrosis
